Experiments:
[1] = tested on: human AML cell line, MV4-11; assay: Anticancer activity in acute myeloid leukemia (AML) animal model; assay type: in vivo, Balb/C nude mice; conditions: intravenously once a day, five times per week for two weeks, MV4-11 implanted nude mice, Day 12 vs Day 1; for inhibition in vivo at 25 mg/kg: Mus musculus, iv, 288 h, read-out: Tumor growth Inhibition Rate
Description: Test materials were prepared in the form of prodrugs to increase the solubility of compounds of interest. A phosphate functional group which may be either a monosodium or disodium form was introduced as a prodrug substituent.
The human AML cell line, MV4-11, was purchased (ATCC, U.S.A.) and cultured at 37° C. under a 5% CO2 condition in Iscove's Modified Dulbecco's Medium (GIBCO, cat# 21056) supplemented with 10% fetal bovine serum (GIBCO, cat# 25030-081). Female Balb/C nude mice (OrientBio, Sungnam-city, Korea), 5-6 weeks old, were acclimated to the breeding room. Using a sterilized syringe, a mixture of 1:1 of MV4-11 cells: matrigel (v/v) was implanted in an amount of 5×10^6/mouse beneath the axilla of each of the mice. When tumor was formed 2 weeks after the implantation, the mice were divided into five (5) groups in such a manner that a minimum deviation with regard to tumor size and body weight was obtained among the groups. The test materials were dissolved in physiological saline and intravenously injected at a dose of 10 ml/kg once a day and five times per week for two weeks (administration days of test materials, D1˜D5, D8˜D12). For a control, only physiological saline was used. The tumor size was determined as calculated by the following equation: Long Axis×Short Axis×Short Axis/2. The Long and Short Axes of the tumor were measured in length using a digital caliper (Mitsutoyo, Japan). The anticancer activity of the test materials was numerated according to the following equation.
Tumor growth Inhibition Rate A (%)=100×[1−(b−a)/(Ref b−Ref a)] […]
a=mean tumor size of drug-administered group on Day 1 b=mean tumor size of drug-administered group on Day 12
Ref a=mean tumor size of the control on Day 1
Ref b=mean tumor size of the control on Day 12
When the mean tumor size of the drug-administered group on Day 12 was smaller than that of just before the administration of the test materials, it is indicated as Regression (>100%).

hERG = target: T1, hERG (Homo sapiens, UniProt Q12809); assay: In vitro cardiotoxicity assay: inhibitory activity against hERG (whole-cell patch clamp); assay type: cell-based; conditions: hERG-transfected HEK293 cells, tail current of outward hERG K+ currents; read-out: Cardiotoxicity (hERG Inhibiting Activity Assay, IC50)
T1 construct: expressed in transfected cells; host or cells: HEK293
T1 sequence (Q12809 whole entry): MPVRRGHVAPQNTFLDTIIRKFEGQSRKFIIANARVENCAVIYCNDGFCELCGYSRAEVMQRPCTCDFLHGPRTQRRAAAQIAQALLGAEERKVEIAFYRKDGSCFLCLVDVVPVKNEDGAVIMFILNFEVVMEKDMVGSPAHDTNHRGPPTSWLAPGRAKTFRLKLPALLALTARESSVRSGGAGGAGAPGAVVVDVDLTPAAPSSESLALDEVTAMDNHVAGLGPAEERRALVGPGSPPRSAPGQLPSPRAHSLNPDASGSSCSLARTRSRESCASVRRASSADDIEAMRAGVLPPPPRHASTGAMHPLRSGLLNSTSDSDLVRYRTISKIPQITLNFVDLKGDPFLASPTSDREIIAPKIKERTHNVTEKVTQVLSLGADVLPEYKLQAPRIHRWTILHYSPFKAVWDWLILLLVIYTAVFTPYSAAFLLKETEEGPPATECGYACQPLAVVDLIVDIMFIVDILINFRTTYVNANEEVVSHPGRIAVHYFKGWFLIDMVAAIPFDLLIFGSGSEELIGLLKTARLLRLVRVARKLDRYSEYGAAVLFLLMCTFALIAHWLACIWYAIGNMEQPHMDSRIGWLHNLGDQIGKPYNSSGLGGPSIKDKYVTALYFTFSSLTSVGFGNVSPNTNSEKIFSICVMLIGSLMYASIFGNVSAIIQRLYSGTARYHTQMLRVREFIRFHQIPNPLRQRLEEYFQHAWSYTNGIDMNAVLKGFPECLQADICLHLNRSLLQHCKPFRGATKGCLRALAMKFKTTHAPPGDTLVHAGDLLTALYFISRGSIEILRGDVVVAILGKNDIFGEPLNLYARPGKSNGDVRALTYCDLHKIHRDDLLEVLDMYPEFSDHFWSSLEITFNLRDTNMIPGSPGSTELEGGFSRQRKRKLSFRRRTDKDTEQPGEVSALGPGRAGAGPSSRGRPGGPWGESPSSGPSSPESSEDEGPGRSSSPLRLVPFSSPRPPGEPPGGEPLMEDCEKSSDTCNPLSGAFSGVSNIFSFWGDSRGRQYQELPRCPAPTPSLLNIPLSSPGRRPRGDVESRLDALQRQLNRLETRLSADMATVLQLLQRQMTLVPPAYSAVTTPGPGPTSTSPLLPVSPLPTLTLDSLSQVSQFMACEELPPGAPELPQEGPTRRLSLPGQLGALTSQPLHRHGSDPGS
Description: HEK293 was transfected with hERG (human Ether-à-go-go Related Gene) cDNA for 48 hrs using Lipofectamine 2000 (Invitrogen, USA). The transfected HEK293 cells were cultured in Modified Dulbecco's Medium (MEM, Gibco, 1 L) supplemented with 10% FBS, sodium pyruvate (10 ml), penicillin/streptomycin (10 ml) and Zeocin (100 μg/ml, Invitrogen) at 37° C. under 5% CO2. After being detached from incubation vessels by trypsinization, the HEK293 cells were placed in a chamber for patch clamp recording. A whole-cell patch clamp method was used to record hERG K+ currents in HEK293 cells using the following intra/extracellular solutions.
The membrane potential was depolarized from −80 mV to +20 mV for 1,000 ms in a whole-cell patch clamp mode and then repolarized to −40 mV for 1,000 ms, during which the tail current of outward hERG K+ currents was recorded. In this regard, the concentrations of the compounds that are required for 50% inhibition of the current were represented as IC50.
The risk of cardiotoxicity has been raised in many drugs. Some of them were withdrawn from the market because they caused a sudden death due to the cardiotoxicity thereof. The cardiotoxicity of drugs is associated with the extension of QT intervals on electrocardiograms. Particularly, most of the drugs extending QT intervals are known to inhibit IKr channels (Bernard Fermini and Anthony A. Fossa, Nature Reviews Drug Discovery, 2003, 2, 439-447). […] In this example, the risk of cardiotoxicity was evaluated using human hERG channel-expressing mammal cells, which are internationally recognized as a system (ICH guideline, S7B, Step 4, 12, May, 2005). Although pharmaceutical activity of drug should be taken into consideration, a drug is evaluated as having a low cardiotoxicity risk when IC50 thereof is 10 μM or higher. […] Having higher IC50, compound A1 was evaluated to be safer than compound A, and compounds B1, B2 and B3 than compound B.

[2] = pH of monosodium and disodium prodrug forms; assay type: physicochemical; conditions: prodrug form as a composition for I.V. injection
Description: (§1) This prodrug was prepared by adding sodium hydroxide to P2, which was synthesized according to Example 9. Both monosodium and disodium forms of the prodrug show a solubility of up to 400 mg/ml. Both forms have advantageous properties as a composition for I.V. injection in that a monosodium form has pH 4.45 and a disodium form has pH of 7.62.
In the graph, the horizontal axis represents the added amounts of sodium hydroxide. In the graph, the first and second points of inflection correspond to the time of production of monosodium and disodium forms, respectively.

[3] = Solubility of monosodium and disodium prodrug forms; assay type: physicochemical; conditions: aqueous medium; prodrug prepared by adding sodium hydroxide to P2
Description: The compounds were prepared in the form of prodrugs to improve the solubility thereof. Phosphate may be introduced as a possible prodrug substituent which can exist as in either monosodiumphosphate or disodiumphosphate form.
as §1

SMILES	inhibition in vivo at 25 mg/kg ([1]; dose 25 mg/kg)	IC50 (hERG)	also measured
Nc1ccn([C@@H]2O[C@H](CO)[C@@H](O)[C@@H]2O)c(=O)n1 [Ara-C, reference compound]			Tumor growth Inhibition Rate ([1]; dose 25 mg/kg, 25 mg/kg): 66%; Tumor growth Inhibition Rate ([1]; dose 50 mg/kg): 77%
C=CCN1CC(=O)N2[C@@H](Cc3ccc(OP(=O)(O)O)cc3)C(=O)N(Cc3cccc4c(C(=O)C5CC5)c[nH]c34)C[C@@H]2N1C(=O)NCc1ccccc1 [Compound C]	25%		
C=CCN1CC(=O)N2[C@@H](Cc3ccc(OP(=O)(O)O)cc3)C(=O)N(Cc3cccc4c(C(=O)C5CC5)cn(C)c34)C[C@@H]2N1C(=O)NCc1ccccc1 [Compound C1]	> 100%		
C=CCN1CC(=O)N2[C@@H](Cc3ccc(OP(=O)(O)O)cc3)C(=O)N(Cc3cccc4c(C(=O)CC(C)(C)C)cn(CCC)c34)C[C@@H]2N1C(=O)NCc1ccccc1 [Compound B1]	> 100%	18 µM	
C=CCN1CC(=O)N2[C@@H](Cc3ccc(OP(=O)([O-])[O-])cc3)C(=O)N(Cc3cccc4c(C(C)=O)cn(C)c34)C[C@@H]2N1C(=O)NCc1ccccc1.[Na+].[Na+] [disodium form]			pH [2]: 7.62; solubility [3]: ≤ 400 mg/mL
C=CCN1CC(=O)N2[C@@H](Cc3ccc(OP(=O)(O)O)cc3)C(=O)N(Cc3cccc4c(C(=O)CC)cn(C)c34)C[C@@H]2N1C(=O)NCc1ccccc1 [Compound A1]	> 100%	80 µM	
C=CCN1CC(=O)N2[C@@H](Cc3ccc(OP(=O)(O)O)cc3)C(=O)N(Cc3cccc4c(C(=O)CC(C)(C)C)c[nH]c34)C[C@@H]2N1C(=O)NCc1ccccc1 [Compound B]	49%	1.6 µM	
C=CCN1CC(=O)N2[C@@H](Cc3ccc(OP(=O)([O-])O)cc3)C(=O)N(Cc3cccc4c(C(C)=O)cn(C)c34)C[C@@H]2N1C(=O)NCc1ccccc1.[Na+] [monosodium form, Sodium 4-(((6S,9AS)-1-(benzylcarbamoyl)-8-((3-acetyl-1-methyl-1H-indol-7-yl)methyl)-2-allyl-octahydro-4,7-dioxo-1H-pyrazino[2,1-C][1,2,4]triazin-6-yl)methyl)phenyl hydrogenphosphate]			pH [2]: 4.45; solubility [3]: ≤ 400 mg/mL
C=CCN1CC(=O)N2[C@@H](Cc3ccc(OP(=O)(O)O)cc3)C(=O)N(Cc3cccc4c(C(=O)CC(C)(C)C)cn(CCCCCC)c34)C[C@@H]2N1C(=O)NCc1ccccc1 [Compound B3]	80%	20 µM	
C=CCN1CC(=O)N2[C@@H](Cc3ccc(OP(=O)(O)O)cc3)C(=O)N(Cc3cccc4c(C(=O)C5CC5)cn(CCCC)c34)C[C@@H]2N1C(=O)NCc1ccccc1 [Compound C3]	70%		
C=CCN1CC(=O)N2[C@@H](Cc3ccc(OP(=O)(O)O)cc3)C(=O)N(Cc3cccc4c(C(C)=O)c[nH]c34)C[C@@H]2N1C(=O)NCc1ccccc1 [Compound A]	61%	14 µM	
C=CCN1CC(=O)N2[C@@H](Cc3ccc(OP(=O)(O)O)cc3)C(=O)N(Cc3cccc4c(C(C)=O)cn(C)c34)C[C@@H]2N1C(=O)NCc1ccccc1 [Compound A2]	> 100%		
C=CCN1CC(=O)N2[C@@H](Cc3ccc(OP(=O)(O)O)cc3)C(=O)N(Cc3cccc4c(C(C)=O)cn(CCC)c34)C[C@@H]2N1C(=O)NCc1ccccc1 [Compound A3]	> 100%		
C=CCN1CC(=O)N2[C@@H](Cc3ccc(OP(=O)(O)O)cc3)C(=O)N(Cc3cccc4c(C(=O)CC(C)(C)C)cn(C)c34)C[C@@H]2N1C(=O)NCc1ccccc1 [Compound B2]	> 100%	25 µM	
C=CCN1CC(=O)N2[C@@H](Cc3ccc(OP(=O)(O)O)cc3)C(=O)N(Cc3cccc4c(C(=O)C5CC5)cn(CC)c34)C[C@@H]2N1C(=O)NCc1ccccc1 [Compound C2]	> 100%		

— patent publication US20100267672A1, “NOVEL COMPOUNDS OF REVERSE-TURN MIMETICS, METHOD FOR MANUFACTURING THE SAME AND USE THEREOF” (Choongwae Pharma Corporation, priority 2009, published 2010)
